Paper PMC9886266, “New [1,2,4]triazolo[4,3-c]quinazolines as intercalative Topo II inhibitors: Design, synthesis, biological evaluation, and in silico studies” (PLOS ONE, 2023)
Where two headings read alike, the source gives them in different places.

Tests used:
[1] = test system: HCT-116 cell line; test: MTT anti-proliferative assay, HCT-116; format: cell-based; settings: Homo sapiens, 48 h, three independent experiments, read-out: In vitro cytotoxicity IC50, HCT-116
Procedure: (§1) In vitro antiproliferative activities of the target molecules were assessed against two human cancer cell lines namely, hepatocellular carcinoma (HepG2) and colorectal carcinoma (HCT-116) using MTT assay.
(§2) The anti-proliferative activity of the synthesized compounds was assessed using MTT assay protocol. A panel of human cancer cell lines namely, colorectal carcinoma (HCT-116) and hepatocellular carcinoma (HepG2) was used in this test. Doxorubicin was used as a positive control. The cell lines were got from ATCC (American Type Culture Collection) via the Holding company for biological products and vaccines (VACSERA, Cairo, Egypt). The anti-proliferative activities of the tested compounds were determined quantitatively as follows:
(§3) At first, the cells were cultured into a medium of RPMI-1640 with 10% fetal bovine serum. Then, two different antibiotics were added at 37°C in a 5% CO2 incubator: penicillin (100 units/mL) and streptomycin (100 μg/mL). Next, we seeded the cells in a 96-well plate by a density of 1.0 x 10^4 cells / well at 37°C for 48 h under 5% CO2. The synthesized compounds with different concentrations were applied into the cell lines and incubated for 48 h. After 48 h, 20 μl of MTT solution (5mg/mL) was added and incubated for 4 h. Then, DMSO (100 μl) was added into each well to dissolve the formed purple formazan. After that, a colorimetric assay was measured and recorded at absorbance of 570 nm using a plate reader (EXL 800, USA). The relative cell viability in percentage was calculated as (A570 of treated samples/A570 of untreated sample) X 100.
(§4) S2: Biological evaluation
(§5) S2.1. In vitro cytotoxic activity
(§6) The anti-proliferative activity of the synthesized compounds was assessed using MTT assay protocol. A panel of human cancer cell lines namely, colorectal carcinoma (HCT-116) and hepatocellular carcinoma (HepG2) was used in this test. As we targeted the DNA and Topo […]
(§7) cell lines were got from ATCC (American Type Culture Collection) via the Holding company for biological products and vaccines (VACSERA, Cairo, Egypt). The anti -proliferative activities of the tested compounds were determined quantitatively as follows:
(§8) At first, the cells were cultured into a medium of RPMI-1640 with 10% fetal bovine serum.
(§9) Then, two different antibiotics were added at 37 ᵒC in a 5% CO2 incubator: penicillin (100 units/mL) and streptomycin (100 µg/mL). Next, we seeded the cells in a 96 -well plate by a density of 1.0 x 10^4 cells / well at 37 ᵒC for 48 h under 5% CO2. The synthesized compounds with different concentrations were applied into the cell lines and incubated for 48 h. After 48 h, 20 µl of MTT solution (5mg/mL) was added and incubated for 4 h. Then, DMSO (100 µl) was added into each well to dissolve the formed purple formazan. After that, a colorimetric assay was measured and recorded at absorbance of 570 nm using a plate reader (EXL 800, USA). The relative cell viability in percentage was calculated as (A570 of treated samples/A570 of untreated sample) X 100. […]

[2] = test system: HepG2 cell line; test: MTT anti-proliferative assay, HepG2; format: cell-based; settings: Homo sapiens, 48 h, three independent experiments, read-out: In vitro cytotoxicity IC50, HepG2
Procedure: as §1, §2, §3, §4, §5, §6, §7, §8, §9

[3] = target: T1, Topoisomerase II (Topo II) (Homo sapiens, UniProt P11388); test: In vitro Topo II inhibitory assay (TopoGEN Topo II drug screening kit); format: biochemical
T1 construct: purchased TopoGEN, Inc., Columbus
Procedure: The reported method described by Patra et al was applied using Topo II drug screening kit (TopoGEN, Inc., Columbus).
A typical enzyme reaction was structured to determine Topo II activity. The reaction mixture included Topo II (2 μl), substrate super coiled pHot1 DNA (0.25 μg), 50 μg/ml test compound (2 μl), and assay buffer (4 μl). To start the reaction, the mixture was allowed to incubate in 37°C for 30 min. To terminate the reaction, a mixture of 10% sodium dodecylsulphate (2 μl) and proteinase K (50 μg/mL) was added at 37°C for 15 min. then incubated for 15 min at 37°C.
(§10) After that, the DNA was run on 1% agarose gel in BioRad gel electrophoresis system for 1–2 h followed by staining with GelRedTM stain for 2 h and destained for 15 min with TAE buffer. The gel was imaged via BioRad’s Gel DocTMEZ system. Both supercoiled and linear strands DNA were incorporated in the gel as markers for DNA-Topo II intercalators. The results of IC50 values were calculated using the GraphPad Prism version 7. Each reaction was performed in duplicate, and at least three independent determinations of each IC50 were made. […]
S2.2. Measurement of topoisomerase II Activity […]
analyzed for their Topo II inhibitory activities. The reported method described by Patra et al was applied using Topo II drug screening kit (TopoGEN, Inc., Columbus).
A typical enzyme reaction was structured to determine Topo II activity. The reaction mixture included Topo II (2 µl), substrate super coiled pHot1 DNA (0.25 µg), 50 µg/ml test compound (2 µl), and assay buffer (4 µl). To start the reaction, the mixture was allowed to incubate in 37 °C for 30 min. To terminate the reaction, a mixture of 10% sodium dodecylsulphate (2 µl) and proteinase K (50 µg/mL) was added at 37 °C for 15 min. then incubated for 15 min at 37 °C.
as §10

[4] = test system: Activated Calf Thymus DNA; test: DNA/methyl green assay (DNA intercalation); format: binding; settings: for LogIC50 (best-fit value, DNA/Topo-II Inhibition (%) curve): log of drug concentration in uM
Procedure: The most promising members (13a, 14a, 16, 17, 18, 19, and 20) were further investigated for their binding affinity against DNA. […] The results of DNA-binding affinities were reported in Table 1 as IC50 values calculated from the concentration-inhibition response curve.
Activated Calf Thymus DNA (Merk, Germany) was treated with methyl green (Merk, Germany), then the synthesized compounds were applied to displace the methyl green dye, producing equivalent color.
After that, the DNA was run on 1% agarose gel in BioRad gel electrophoresis system for 1–2 h followed by staining with GelRedTM stain for 2 h and destained for 15 min with TAE buffer. The gel was imaged via BioRad’s Gel DocTMEZ system. Both supercoiled and linear strands DNA were incorporated in the gel as markers for DNA-Topo II intercalators. The results of IC50 values were calculated using the GraphPad Prism version 7. Each reaction was performed in duplicate, and at least three independent determinations of each IC50 were made.
S2.3. DNA/Methyl Green Assay […]
methyl green dye method described by Burres et al. Activated Calf Thymus DNA (Merk, Germany) was treated with methyl green (Merk, Germany), then the synthesized compounds were applied to displace the methyl green dye, producing equivalent color. […]

[5] = test system: HepG2 cell line; parameters: method as in PMID 32882440; settings: previous work of the authors; read-out: In vitro cytotoxicity IC50, HepG2; cited from earlier work
[6] = test system: HCT-116 cell line; parameters: method as in PMID 32882440; settings: previous work of the authors; read-out: In vitro cytotoxicity IC50, HCT-116; cited from earlier work
[7] = target: T1, Topoisomerase II (Topo II); parameters: method as in PMID 32882440; settings: previous work of the authors; cited from earlier work
[8] = test system: Activated Calf Thymus DNA; parameters: method as in PMID 32882440; settings: previous work of the authors; read-out: DNA/Methyl green (IC50); cited from earlier work
[9] = 50% inhibition concentration of DNA/methyl green assay, read-out: DNA/Methyl green (IC50)

T1 sequence (P11388 whole entry): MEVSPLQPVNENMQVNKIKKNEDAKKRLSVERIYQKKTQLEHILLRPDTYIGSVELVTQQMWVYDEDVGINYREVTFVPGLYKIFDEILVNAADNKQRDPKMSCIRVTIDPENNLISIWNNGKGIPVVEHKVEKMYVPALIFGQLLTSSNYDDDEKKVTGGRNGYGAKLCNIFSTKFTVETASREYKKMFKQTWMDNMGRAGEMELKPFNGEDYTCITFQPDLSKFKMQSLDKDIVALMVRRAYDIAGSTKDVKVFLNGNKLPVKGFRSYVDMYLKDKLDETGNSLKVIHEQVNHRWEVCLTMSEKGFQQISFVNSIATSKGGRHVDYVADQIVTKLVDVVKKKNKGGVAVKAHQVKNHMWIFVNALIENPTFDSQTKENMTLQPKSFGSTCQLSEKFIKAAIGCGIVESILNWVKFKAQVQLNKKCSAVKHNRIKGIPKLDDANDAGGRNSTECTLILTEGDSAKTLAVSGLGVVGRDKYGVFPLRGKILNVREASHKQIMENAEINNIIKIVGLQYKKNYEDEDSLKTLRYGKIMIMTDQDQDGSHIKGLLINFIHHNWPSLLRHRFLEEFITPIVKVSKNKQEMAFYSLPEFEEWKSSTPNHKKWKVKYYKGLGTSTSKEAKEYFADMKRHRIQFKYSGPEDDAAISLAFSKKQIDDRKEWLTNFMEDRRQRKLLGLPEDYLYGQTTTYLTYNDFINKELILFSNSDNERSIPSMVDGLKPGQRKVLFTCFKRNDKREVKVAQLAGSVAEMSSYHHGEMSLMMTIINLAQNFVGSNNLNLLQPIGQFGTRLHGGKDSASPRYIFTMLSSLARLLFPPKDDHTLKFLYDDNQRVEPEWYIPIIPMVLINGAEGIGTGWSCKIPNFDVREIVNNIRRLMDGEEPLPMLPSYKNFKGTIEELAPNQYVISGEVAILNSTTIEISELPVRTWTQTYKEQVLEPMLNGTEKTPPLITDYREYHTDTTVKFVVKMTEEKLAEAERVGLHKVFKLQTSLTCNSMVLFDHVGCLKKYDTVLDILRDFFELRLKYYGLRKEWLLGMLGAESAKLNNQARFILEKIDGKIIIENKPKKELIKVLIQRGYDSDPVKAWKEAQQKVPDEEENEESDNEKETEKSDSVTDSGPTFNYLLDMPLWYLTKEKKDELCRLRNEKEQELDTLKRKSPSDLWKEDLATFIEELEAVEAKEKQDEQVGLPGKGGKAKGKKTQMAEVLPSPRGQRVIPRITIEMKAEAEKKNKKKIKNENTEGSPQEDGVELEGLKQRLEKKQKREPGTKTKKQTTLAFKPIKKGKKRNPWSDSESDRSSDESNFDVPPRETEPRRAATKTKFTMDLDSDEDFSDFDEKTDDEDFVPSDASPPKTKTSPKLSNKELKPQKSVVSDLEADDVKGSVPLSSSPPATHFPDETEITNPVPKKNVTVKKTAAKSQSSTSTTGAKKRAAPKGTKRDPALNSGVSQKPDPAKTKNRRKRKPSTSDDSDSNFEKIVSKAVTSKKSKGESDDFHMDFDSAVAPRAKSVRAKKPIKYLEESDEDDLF

| SMILES | IC50 [1] [µM] | IC50 [2] [µM] | IC50 [3] [µM] | IC50 [4, 9] [µM] | LogIC50 (best-fit value, DNA/Topo-II Inhibition (%) curve) ([4]; supplement curve fit) | HillSlope (best-fit value, DNA/Topo-II Inhibition (%) curve) ([4]; supplement curve fit) | further results |
| --- | --- | --- | --- | --- | --- | --- | --- |
| CN(C)c1nc2ccccc2c2nnc(-c3ccc(Cl)cc3)n12 [Compound 13b, 3-(4-Chlorophenyl)-N,N-dimethyl-[1,2,4]triazolo[4,3-c]quinazolin-5-amine] | 16.9 ± 0.9 | 33.1 ± 1.7 |  |  |  |  |  |
| CN(C)c1nc2ccccc2c2nnc(C(F)(F)F)n12 [Compound 18, N,N-Dimethyl-3-(trifluoromethyl)-[1,2,4]triazolo[4,3-c]quinazolin-5-amine] | 4.17 ± 0.1 | 6.82 ± 0.2 | 18.3 ± 0.8 | 12.5 ± 0.6 | 1.098 | 0.3961 |  |
| O=C(CSc1nnc2c3ccccc3c(=O)n(CC(=O)Nc3ccc(C(=O)O)cc3)n12)Nc1ccc(C(=O)O)cc1 [VIIa] |  |  |  |  |  |  | IC50 [5]: 3.91 ± 0.15 µM; IC50 [6]: 2.62 ± 0.1 µM; IC50 [7]: 7.45 ± 0.44 µM; IC50 [8]: 48.3 ± 2.3 µM |
| COc1cccc2c1C(=O)c1c(O)c3c(c(O)c1C2=O)C[C@@](O)(C(=O)CO)C[C@@H]3O[C@H]1C[C@H](N)[C@H](O)[C@H](C)O1 [Doxorubicin, reference compound] | 1.87 ± 0.1 | 3.8 ± 0.1 |  | 5.64 ± 0.1 |  | 0.3659 | IC50 ([4]; supplement curve fit, read-out: IC50 (best-fit value, DNA/Topo-II Inhibition (%) curve)): 5.64 µM |
| Clc1ccc(-c2nnc3c4ccccc4nc(NC4CCCCC4)n23)cc1 [Compound 14b, 3-(4-Chlorophenyl)-N-cyclohexyl-[1,2,4]triazolo[4,3-c]quinazolin-5-amine] | 17.4 ± 0.4 | 29.5 ± 1.2 |  |  |  |  |  |
| FC(F)(F)c1nnc2c3ccccc3nc(NC3CCCCC3)n12 [Compound 19, N-Cyclohexyl-3-(trifluoromethyl)-[1,2,4]triazolo[4,3-c]quinazolin-5-amine] | 9.43 ± 0.3 | 8.91 ± 0.2 | 18.7 ± 0.9 | 23.6 ± 1.3 | 1.373 | 0.3612 |  |
| CCCNc1nc2ccccc2c2nnc(-c3ccc(C)cc3)n12 [Compound 11a, N-Propyl-3-(p-tolyl)-[1,2,4]triazolo[4,3-c]quinazolin-5-amine] | 8.42 ± 0.3 | 15.5 ± 1 |  |  |  |  |  |
| Cc1ccc(-c2nnc3c4ccccc4nc(NC4CCCCC4)n23)cc1 [Compound 14a, N-Cyclohexyl-3-(p-tolyl)-[1,2,4]triazolo[4,3-c]quinazolin-5-amine] | 7.66 ± 0.2 | 13 ± 0.5 | 30.4 ± 1.8 | 22.5 ± 0.9 | 1.353 | 0.4583 |  |
| OCCNc1nc2ccccc2c2nnc(C(F)(F)F)n12 [Compound 17, 2-((3-(Trifluoromethyl)-[1,2,4]triazolo[4,3-c]quinazolin-5-yl)amino)ethan-1-ol] | 2.78 ± 0.1 | 5.65 ± 0.1 | 17.7 ± 0.8 | 11.1 ± 0.7 | 1.045 | 0.4423 |  |
| OCCNc1nc2ccccc2c2nnc(-c3ccc(Cl)cc3)n12 [Compound 12b, 2-((3-(4-Chlorophenyl)-[1,2,4]triazolo[4,3-c]quinazolin-5-yl)amino)ethan-1-ol] | 7.03 ± 0.2 | 17.8 ± 0.9 |  |  |  |  |  |
| Cc1ccc(-c2nnc3c4ccccc4nc(N(C)C)n23)cc1 [Compound 13a, N,N-Dimethyl-3-(p-tolyl)-[1,2,4]triazolo[4,3-c]quinazolin-5-amine] | 11.6 ± 0.5 | 10.7 ± 0.6 | 36.1 ± 1.9 | 52.9 ± 1.6 | 1.723 | 0.4587 |  |
| CCCNc1nc2ccccc2c2nnc(-c3ccc(Cl)cc3)n12 [Compound 11b, 3-(4-Chlorophenyl)-N-propyl-[1,2,4]triazolo[4,3-c]quinazolin-5-amine] | 25 ± 0.9 | 29.9 ± 1.3 |  |  |  |  |  |
| Cc1ccc(-c2nnc3c4ccccc4nc(NCCO)n23)cc1 [Compound 12a, 2-((3-(p-Tolyl)-[1,2,4]triazolo[4,3-c]quinazolin-5-yl)amino)ethan-1-ol] | 11.9 ± 0.3 | 18.8 ± 1.2 |  |  |  |  |  |
| Cc1ccc(-c2nnc3c4ccccc4nc(N4CCOCC4)n23)cc1 [Compound 15a, 4-(3-(p-Tolyl)-[1,2,4]triazolo[4,3-c]quinazolin-5-yl)morpholine] | 20 ± 0.4 | 20.4 ± 0.9 |  |  |  |  |  |
| FC(F)(F)c1nnc2c3ccccc3nc(N3CCOCC3)n12 [Compound 20, 4-(3-(Trifluoromethyl)-[1,2,4]triazolo[4,3-c]quinazolin-5-yl)morpholine] | 4.61 ± 0.2 | 8.34 ± 0.3 | 20.6 ± 0.9 | 34.5 ± 1.2 | 1.538 | 0.3425 |  |
| Clc1ccc(-c2nnc3c4ccccc4nc(N4CCOCC4)n23)cc1 [Compound 15b, 4-(3-(4-Chlorophenyl)-[1,2,4]triazolo[4,3-c]quinazolin-5-yl)morpholine] | 21 ± 0.3 | 23.4 ± 0.9 |  |  |  |  |  |
